US9732370B2, “Method for the determination of the presence of an antibiotic in a fluid” (DSM IP ASSETS B.V., priority 2013, dated 2017)

Test system: test organism of Delvotest SP-NT
Experiment: Microbial growth inhibition test (DSM Delvotest SP-NT, reference or modified with streptomycin in the test medium): detection limit of antibiotics in spiked milk
Format: cell-based
Details: for Detection limit: spiked milk, 64° C., cut-off Z-value 0; for Effect of an aminoglycoside antibiotic in the test medium on the sensitivity of the test for the antibiotic: aminoglycoside antibiotic (streptomycin) added to test medium versus reference test
Protocol: As a reference, a commercially available test system without any added aminoglycoside antibiotic (DSM Delvotest® SP-NT, plates containing 8×12 test wells) was used. In addition, two different test systems were prepared by modifying the reference test by adding the aminoglycoside antibiotic streptomycin to the test medium in a final concentration of 100 ppb or 1000 ppb. The detection limits of four different antibiotics were measured in the reference test and in the tests with modified medium containing different concentrations of streptomycin. The antibiotics that were measured were streptomycin and dihydrostreptomycin (DH-streptomycin) (both belonging to the aminoglycoside antibiotic family), penicillin G (belonging to the beta-lactam antibiotic family), and oxytetracycline (belonging to the tetracycline antibiotic family) Five different concentrations of each antibiotic (see Table 1) were measured. Hundred microliter antibiotic-free milk or hundred microliter milk spiked with the respective concentrations of antibiotic was added to the test medium (170 μl) and incubated at 64° C. in a water bath. The tests were visually determined at the point in time where a sample without antibiotic had changed colour from purple to yellow. At this point, the plates were cooled in an ice bath for 5 minutes. The cooled plates were scanned on a Delvo® scanner. The colour of each well was expressed as a Z-value; a purple colour gives rise to a positive Z-value, while a yellow colour has a negative Z-value. The Z-value of test results with samples without antibiotic is typically […]. Detailed description of the scanning technology and the expression of the colour in Z-values are described in WO 03/033728. For the determination of the detection limit for each antibiotic, a dose-response function (Z-value versus concentration of antibiotic) was constructed. The detection limit is defined as the antibiotic concentration where the S-shaped dose-response function has a Z-value equal to the cut-off value. For Delvotest® SP-NT a cut-off Z-value of 0 was used.

[1] = Streptomycin concentration in test 100 ppb
[2] = Streptomycin concentration in test 1000 ppb
[3] = Streptomycin concentration in test 0 ppb (reference Delvotest SP-NT)

SMILES	Detection limit [1] [ppb]	Detection limit [2] [ppb]	Effect of an aminoglycoside antibiotic in the test medium on the sensitivity of the test for the antibiotic	Detection limit [3] [ppb]
CN[C@@H]1[C@H](O[C@H]2[C@H](O[C@H]3[C@H](O)[C@@H](O)[C@H](NC(=N)N)[C@@H](O)[C@@H]3NC(=N)N)O[C@@H](C)[C@]2(O)CO)O[C@@H](CO)[C@H](O)[C@H]1O [DH-streptomycin, dihydrostreptomycin]	982	445	increases	–
CN(C)[C@@H]1C(O)=C(C(N)=O)C(=O)[C@@]2(O)C(O)=C3C(=O)c4c(O)cccc4[C@@](C)(O)[C@H]3[C@H](O)[C@@H]12 [Oxytetracycline, oxytetracycline]	239	343	no effect	264
CC1(C)S[C@@H]2[C@H](NC(=O)Cc3ccccc3)C(=O)N2[C@H]1C(=O)O [Penicillin G, penicillin G]	0.95	1.07	no effect	1.04
[H]/N=C(/N)N[C@H]1[C@H](O)[C@@H](O)[C@H](O[C@@H]2O[C@@H](C)[C@](O)(C=O)[C@H]2O[C@@H]2O[C@@H](CO)[C@H](O)[C@@H](O)[C@@H]2NC)[C@@H](N/C(N)=N\[H])[C@@H]1O [Streptomycin, streptomycin]	1186	676	increases	–
